The results in this text go back to ChEMBL document CHEMBL5365442, “A novel chalcone derivative exerts anticancer effects by promoting apoptotic cell death of human pancreatic cancer cells” (Bioorg Med Chem, 2023).

The nature of data set [1]: 1-octanol/PBS partition coefficient, logD of the compound at pH 7.4 by HPLC analysis. The format is physicochemical.
The test system of data set [2] is BXPC-3. The data set can be described thus: Antiproliferative activity against human BXPC-3 cells assessed as inhibition of cell growth incubated for 24 hrs by WST-1 assay. The following applies: BXPC-3, 24 h. The format is functional, cell-based.
Data set [3] concerns BXPC-3. The data set can be described thus: Antiproliferative activity against human BXPC-3 cells assessed as inhibition of cell growth incubated for 48 hrs by WST-1 assay. It counts as functional, cell-based. The following applies: BXPC-3, 48 h. For orientation: Formazan colour is commonly taken as a measure of viable cells.
Data set [4] deals with BXPC-3. The data set can be described thus: Antiproliferative activity against human BXPC-3 cells assessed as inhibition of cell growth incubated for 72 hrs by WST-1 assay. The following applies: BXPC-3, 72 h. It counts as functional, cell-based.
The test system of data set [5] is BXPC-3. The data set can be described thus: Induction of apoptosis in human BXPC-3 cells assessed as increase in cleaved PARP level at 10 uM incubated for 24 hrs by Western blot analysis. The format is functional, cell-based.
Data set [6] deals with BXPC-3. The data set can be described thus: Induction of mitochodrial fission in human BXPC-3 cells assessed as reduction in mitochondrial length at 10 uM incubated for 24 hrs by MitoTracker Red CMX ROS staining based confocal microscopic analysis. It counts as functional, cell-based.
Data set [7] concerns BXPC-3. The data set can be described thus: Induction of apoptosis in human BXPC-3 cells assessed as increase in cleaved caspase 3 level at 10 uM incubated for 24 hrs by Western blot analysis. It counts as functional, cell-based.
Data set [8] concerns BXPC-3. The data set can be described thus: Induction of apoptosis in human BXPC-3 cells assessed as increase in lipid level at 10 uM incubated for 24 hrs by SRS microspectroscopic analysis. It counts as functional, cell-based.
Data set [9] has as its system BXPC-3. The data set can be described thus: Induction of apoptosis in human BXPC-3 cells assessed as increase in cleaved PARP level at 30 uM incubated for 24 hrs by Western blot analysis. The format is functional, cell-based. On the technique in general: A western blot detects proteins with antibodies after separation by electrophoresis.
Data set [10] deals with BXPC-3. The data set can be described thus: Induction of apoptosis in human BXPC-3 cells assessed as increase in number of dead cells at 30 uM incubated for 24 hrs by EthD-1 staining based fluorescence microscopic analysis relative to control. It counts as functional.
Data set [11] relates to BXPC-3. The data set can be described thus: Induction of apoptosis in human BXPC-3 cells assessed as nuclear condensation at 30 uM incubated for 24 hrs by Hoechst staining based confocal microscopic analysis. It counts as functional, cell-based.
Data set [12] deals with BXPC-3. The data set can be described thus: Induction of apoptosis in human BXPC-3 cells assessed as decrease in number of anti-Ki67 cells at 30 uM incubated for 24 hrs by anti-Ki67 staining based confocal microscopic analysis. It counts as functional, cell-based.
In data set [13] the test system is BXPC-3. The data set can be described thus: Induction of mitochodrial fission in human BXPC-3 cells assessed as reduction in mitochondrial length at 30 uM incubated for 24 hrs by MitoTracker Red CMX ROS staining based confocal microscopic analysis relative to control. The format is functional. Set-up: scale not given: the % may be the effect or the level left.

A short description of data set [14]: Downregulation of phosphorylated ERK protein expression in human BXPC-3 cells at 10 to 30 uM incubated for 24 hrs by Western blot analysis relative to control. The format is functional. The following applies: dose 10-30 µM.
Data set [15] can be described thus: Upregulation of phosphorylated p38 protein expression in human BXPC-3 cells at 10 to 30 uM incubated for 24 hrs by Western blot analysis relative to control. The format is functional. The following applies: dose 10-30 µM.
Data set [16] deals with BXPC-3. The data set can be described thus: Induction of apoptosis in human BXPC-3 cells assessed as increase in cleaved caspase 3 level at 10 to 30 uM incubated for 24 hrs by Western blot analysis. It counts as functional, cell-based. The following applies: dose 10-30 µM.
For data set [17], the system named is BXPC-3. The data set can be described thus: Induction of apoptosis in human BXPC-3 cells assessed as increase in BAX/Bcl-2 mRNA expression ratio at 30 uM incubated for 24 hrs by RT-PCR analysis relative to control. It counts as functional.
Data set [18] deals with BXPC-3. The data set can be described thus: Induction of apoptosis in human BXPC-3 cells assessed as enlargement of cells at 30 uM incubated for 24 hrs by SRS microspectroscopic analysis. The format is functional, cell-based.
Data set [19] relates to BXPC-3. The data set can be described thus: Induction of apoptosis in human BXPC-3 cells assessed as porous appearance at 30 uM incubated for 24 hrs by SRS microspectroscopic analysis. It counts as functional, cell-based.
For data set [20], the system named is BXPC-3. The data set can be described thus: Induction of apoptosis in human BXPC-3 cells assessed as membrane blebbing at 30 uM incubated for 24 hrs by SRS microspectroscopic analysis. The format is functional, cell-based.
For data set [21], the system named is BXPC-3. The data set can be described thus: Induction of apoptosis in human BXPC-3 cells assessed as accretion of lipid-like substances at 30 uM incubated for 24 hrs by SRS microspectroscopic analysis. The format is functional, cell-based.
Data set [22] relates to BXPC-3. The data set can be described thus: Induction of apoptosis in human BXPC-3 cells assessed as increase in intensity of lipid-associated SRS bands at 30 uM incubated for 24 hrs by SRS microspectroscopic analysis. It counts as functional, cell-based.
Data set [23] concerns BXPC-3. The data set can be described thus: Induction of apoptosis in human BXPC-3 cells assessed as decrease in intensity of protein-associated SRS bands at 30 uM incubated for 24 hrs by SRS microspectroscopic analysis. It counts as functional, cell-based.

Each structure is given as a SMILES string. pIC50: −log10 of the molar value. Calls of active or inactive are those of the source. The rule behind the calls is not given here.

In the case of `COc1ccc(O)c(C(=O)/C=C/c2cccc(OC)c2OC)c1`, in data set [1], the logD worked out at 2.98. For the same compound, the pIC50 in the data set on BXPC-3 [2] is 4.58; in the data set on BXPC-3 [3] it was 4.57; with BXPC-3 [4], 4.62.

For `Nc1ccn([C@@H]2O[C@H](CO)[C@@H](O)C2(F)F)c(=O)n1` [GEMCITABINE], the result in the data set on BXPC-3 [5], in the data set with BXPC-3 [6], with BXPC-3 [7] and with BXPC-3 [8] was Active. In addition, the pIC50 in the data set with BXPC-3 [2] was 4.91; in the data set on BXPC-3 [3], 5.17; with BXPC-3 [4] it was 5.26.

Take `COc1ccc(OCC(O)CO)c(C(=O)/C=C/c2cccc(OC)c2OC)c1` (stereo not given): the result in the data set with BXPC-3 [9], in the data set on BXPC-3 [11], in the data set on BXPC-3 [12], in the data set with BXPC-3 [16], with BXPC-3 [18] and in the data set with BXPC-3 [19] was Active. For the same compound, the outcome in the data set on BXPC-3 [20], with BXPC-3 [21], with BXPC-3 [22] and with BXPC-3 [23] was Active. In data set [1], this compound had a logD of 2.42. The pIC50 is 4.49 in the data set on BXPC-3 [2], 4.93 in the data set on BXPC-3 [3] and 5.10 with BXPC-3 [4]. The Activity in the data set with BXPC-3 [10] is reported as 256.18%; with BXPC-3 [13], 16%; in [14], 50%; in data set [15] it was 367.3%; in the data set on BXPC-3 [17], 217.4%.

The logD is the decadic logarithm of the distribution of all forms, ionised or not, between an organic phase and buffer at a given pH. By pIC50 is commonly meant the IC50 on a negative log10 scale, so that one unit is a factor of ten.
